This is an account of results in patent US7741341B2, “Benzimidazole-derivatives as factor Xa inhibitors” (sanofi-aventis Deutschland GmbH, priority 2003, dated 2010).

For orientation: Ki means the equilibrium dissociation constant of an inhibitor or competing ligand from its target.

The target of this test is T1, human factor Xa (Homo sapiens, UniProt P00742).
T1 construct: human factor Xa (Enzyme Research Laboratories, Inc; South Bend, Ind.); purchased Enzyme Research Laboratories, Inc; South Bend, Ind
T1 sequence (P00742 235-488 limits assumed): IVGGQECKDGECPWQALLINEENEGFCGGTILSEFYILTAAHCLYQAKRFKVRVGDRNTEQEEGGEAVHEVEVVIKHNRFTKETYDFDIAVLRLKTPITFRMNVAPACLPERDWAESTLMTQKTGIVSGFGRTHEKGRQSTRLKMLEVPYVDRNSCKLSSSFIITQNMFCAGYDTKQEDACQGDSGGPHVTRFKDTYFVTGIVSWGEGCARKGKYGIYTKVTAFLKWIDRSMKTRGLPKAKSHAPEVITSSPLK
T1 sequence (P00742 41-179 partner limits assumed): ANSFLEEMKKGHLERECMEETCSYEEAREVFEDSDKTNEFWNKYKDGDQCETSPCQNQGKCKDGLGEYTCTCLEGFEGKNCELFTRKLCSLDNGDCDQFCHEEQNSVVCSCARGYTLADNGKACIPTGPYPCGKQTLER
Description: Factor Xa assay (chromogenic, substrate S-2765). Type of test: biochemical. Particulars: read-out: Ki(FXa). As for the experimental part: Purified enzymes were used in chromogenic assays.
The IC50 was determined by combining in appropriate wells of a Costar half-area microtiter plate 25 μl human factor Xa (Enzyme Research Laboratories, Inc.; South Bend, Ind.) in TBS-PEG; 40 μl 10% (v/v) DMSO in TBS-PEG (uninhibited control) or various concentrations of the compound to be tested diluted in 10% (v/v) DMSO in TBS-PEG; and substrate S-2765 (N(α)-benzyloxycarbonyl-D-Arg-Gly-L-Arg-p-nitroanilide; Kabi Pharmacia, Inc.; Franklin, Ohio) in TBS-PEG.
The assay was performed by pre-incubating the compound of formula I plus enzyme for 10 min. Then the assay was initiated by adding substrate to obtain a final volume of 100 μl. […] The enzyme concentration was 0.5 nM and substrate concentration was 140 μM.
In the case of `CC(C)N1CCC(NC(=O)c2nc3cc(C(=O)O)ccc3n2CC(=O)Nc2ccc(Cl)cn2)CC1` [Example 18, 1-[(5-Chloro-pyridin-2-ylcarbamoyl)-methyl]-2-(1-isopropyl-piperidin-4-ylcarbamoyl)-1H-benzoimidazole-5-carboxylic acid], the Ki was 22.5 nM.
The value for `COC1CN(C(=O)c2cccc3c2nc(C(=O)NC2CCN(C(C)C)CC2)n3Cc2cc(-c3ccc(Cl)s3)on2)C1` [Example 80, 1-[5-(5-Chloro-thiophen-2-yl)-isoxazol-3-ylmethyl]-4-(3-methoxy-azetidine-1-carbonyl)-1H-benzoimidazole-2-carboxylic acid (1-isopropyl-piperidin-4-yl)-amide] was 7 nM; that for `CC(OC(=O)OC1CCCCC1)OC(=O)c1cccc2c1nc(C(=O)NC1CCN(C(C)C)CC1)n2CC(=O)Nc1ccc(Cl)cn1` (stereo not shown) [Example 34, 1-[(5-Chloro-pyridin-2-ylcarbamoyl)-methyl]-2-(1-isopropyl-piperidin-4-ylcarbamoyl)-1H-benzoimidazole-4-carboxylic acid 1-cyclohexyloxycarbonyloxy-ethyl ester] was 19.5 nM; that for `CC(C)N1CCC(NC(=O)c2nc3cccc(C(=O)O)c3n2Cc2cc(-c3ccc(Cl)s3)on2)CC1` [Example 13, 3-[5-(5-Chloro-thiophen-2-yl)-isoxazol-3-ylmethyl]-2-(1-isopropyl-piperidin-4-ylcarbamoyl)-3H-benzoimidazole-4-carboxylic acid] was 299 nM.
The value for `CC(C)N1CCC(NC(=O)c2nc3c(C(=O)O)cccc3n2CC(=O)Nc2ccc(Cl)cn2)CC1` [Example 16, 1-[(5-Chloro-pyridin-2-ylcarbamoyl)-methyl]-2-(1-isopropyl-piperidin-4-ylcarbamoyl)-1H-benzoimidazole-4-carboxylic acid] was 11 nM; that for `O=C(NC1CCN(c2ccncn2)CC1)c1nc2ccccc2n1Cc1cc(-c2ccc(Cl)s2)on1` [Example 4, 1-[5-(5-Chloro-thiophen-2-yl)-isoxazol-3-ylmethyl]-1H-benzoimidazole-2-carboxylic acid (1-pyrimidin-4-yl-piperidin-4-yl)-amide] was 59.2 nM; that for `CC(C)N1CCC(NC(=O)c2nc3ccccc3n2CC(=O)Nc2ccc(Cl)cn2)CC1` [Example 3, 1-[(5-Chloro-pyridin-2-ylcarbamoyl)-methyl]-1H-benzoimidazole-2-carboxylic acid (1-isopropyl-piperidin-4-yl)-amide] was 1.4 nM.
As to `CC(C)N1CCC(NC(=O)c2nc3cc(C(=O)N4CC(O)C4)ccc3n2Cc2cc(-c3ccc(Cl)s3)on2)CC1` [Example 26, 1-[5-(5-Chloro-thiophen-2-yl)-isoxazol-3-ylmethyl]-5-(3-hydroxy-azetidine-1-carbonyl)-1H-benzoimidazole-2-carboxylic acid (1-isopropyl-piperidin-4-yl)-amide], the Ki is 18.5 nM.
Under `CC(C)N1CCC(NC(=O)c2nc3c(C(=O)N4CC(O)C4)cccc3n2Cc2cc(-c3ccc(Cl)s3)on2)CC1` [Example 23, 1-[5-(5-Chloro-thiophen-2-yl)-isoxazol-3-ylmethyl]-4-(3-hydroxy-azetidine-1-carbonyl)-1H-benzoimidazole-2-carboxylic acid (1-isopropyl-piperidin-4-yl)-amide] stands 8 nM; under `CC(C)N1CCC(NC(=O)c2nc3ccc(C(=O)NCCO)cc3n2CC(=O)Nc2ccc(Cl)cn2)CC1` [Example 57, 3-[(5-Chloro-pyridin-2-ylcarbamoyl)-methyl]-3H-benzoimidazole-2,5-dicarboxylic acid 5-[(2-hydroxy-ethyl)-amide]2-[(1-isopropyl-piperidin-4-yl)-amide]], 585 nM; under `CC(C)N1CCC(NC(=O)c2nc3c(C(=O)N4CCC(F)(F)CC4)cccc3n2CC(=O)Nc2ccc(Cl)cn2)CC1` [Example 76, 1-[(5-Chloro-pyridin-2-ylcarbamoyl)-methyl]-4-(4,4-difluoro-piperidine-1-carbonyl)-1H-benzoimidazole-2-carboxylic acid (1-isopropyl-piperidin-4-yl)-amide], 8.5 nM.
Consider `CC(C)N1CCC(NC(=O)c2nc3c(C(=O)NCCO)scc3n2Cc2cc(-c3ccc(Cl)s3)on2)CC1` [Example 102, 3-[5-(5-Chloro-thiophen-2-yl)-isoxazol-3-ylmethyl]-3H-thieno[3,4-d]imidazole-2,6-dicarboxylic acid 6-[(2-hydroxy-ethyl)-amide]2-[(1-isopropyl-piperidin-4-yl)-amide]], for which the inhibition constant (Ki) came to 2.5 nM.
Turning to `O=C(Cn1c(C(=O)Nc2ccc(-n3ccc(=O)[nH]c3=O)cc2)nc2ccccc21)Nc1ccc(Cl)cn1` [Example 44, 1-[(5-Chloro-pyridin-2-ylcarbamoyl)-methyl]-1H-benzoimidazole-2-carboxylic acid [4-(2,4-dioxo-3,4-dihydro-2H-pyrimidin-1-yl)-phenyl]-amide], the Ki was 28 nM.
Under `CCOC(=O)OC(C)OC(=O)c1cccc2c1nc(C(=O)NC1CCN(C(C)C)CC1)n2Cc1cc(-c2ccc(Cl)s2)on1` (stereo not shown) [Example 20, 1-[5-(5-Chloro-thiophen-2-yl)-isoxazol-3-ylmethyl]-2-(1-isopropyl-piperidin-4-ylcarbamoyl)-1H-benzoimidazole-4-carboxylic acid 1-ethoxycarbonyloxy-ethyl ester] stands 8.5 nM; under `COC(=O)c1cccc2nc(C(=O)NC3CCN(C(C)C)CC3)n(Cc3cc(-c4ccc(Cl)s4)on3)c12` [Example 11b, 3-[5-(5-Chloro-thiophen-2-yl)-isoxazol-3-ylmethyl]-2-(1-isopropyl-piperidin-4-ylcarbamoyl)-3H-benzoimidazole-4-carboxylic acid methyl ester], 1 nM.
Take `CC(C)N1CCC(NC(=O)c2nc3c(C(=O)N(C)CCO)cccc3n2Cc2cc(-c3ccc(Cl)s3)on2)CC1` [Example 24, 1-[5-(5-Chloro-thiophen-2-yl)-isoxazol-3-ylmethyl]-1H-benzoimidazole-2,4-dicarboxylic acid 4-[(2-hydroxy-ethyl)-methyl-amide] 2-[(1-isopropyl-piperidin-4-yl)-amide]]: the Ki stood at 26 nM.
In the case of `O=C(Nc1ccc(-n2ccncc2=O)cc1)c1nc2ccccc2n1Cc1cc(-c2ccc(Cl)s2)on1` [Example 48, 1-[5-(5-Chloro-thiophen-2-yl)-isoxazol-3-ylmethyl]-1H-benzoimidazole-2-carboxylic acid [4-(2-oxo-2H-pyrazin-1-yl)-phenyl]-amide], the inhibition constant (Ki) amounted to 2 nM.
Under `CC(C)N1CCC(NC(=O)c2nc3cc(S(=O)(=O)CCO)ccc3n2Cc2cc(-c3ccc(Cl)s3)on2)CC1` [Example 29a, 1-[5-(5-Chloro-thiophen-2-yl)-isoxazol-3-ylmethyl]-5-(2-hydroxy-ethanesulfonyl)-1H-benzoimidazole-2-carboxylic acid (1-isopropyl-piperidin-4-yl)-amide] stands 25.5 nM.
Turning to `CC(OC(=O)OC1CCCCC1)OC(=O)c1ccc2c(c1)nc(C(=O)NC1CCN(C(C)C)CC1)n2CC(=O)Nc1ccc(Cl)cn1` (stereo not shown) [Example 60, 1-[(5-Chloro-pyridin-2-ylcarbamoyl)-methyl]-2-(1-isopropyl-piperidin-4-ylcarbamoyl)-1H-benzoimidazole-5-carboxylic acid 1-cyclohexyloxycarbonyloxy-ethyl ester], the inhibition constant (Ki) turned out to be 35 nM.
In the case of `COCCOc1cccc2c1nc(C(=O)Nc1ccc(N3CCOCC3=O)cc1)n2CC(=O)Nc1ccc(Cl)cn1` [Example 52, 1-[(5-Chloro-pyridin-2-ylcarbamoyl)-methyl]-4-(2-methoxy-ethoxy)-1H-benzoimidazole-2-carboxylic acid [4-(3-oxo-morpholin-4-yl)-phenyl]-amide], the inhibition constant (Ki) was determined as 14 nM.
On to `CC(C)N1CCC(NC(=O)c2nc3cc(C(=O)N4CC(O)C4)ccc3n2CC(=O)Nc2ccc(Cl)cn2)CC1` [Example 54, 1-[(5-Chloro-pyridin-2-ylcarbamoyl)-methyl]-5-(3-hydroxy-azetidine-1-carbonyl)-1H-benzoimidazole-2-carboxylic acid (1-isopropyl-piperidin-4-yl)-amide], for which the inhibition constant (Ki) is 31 nM.
With `CC(C)N1CCC(NC(=O)c2nc3ccc(C(=O)OCCO)cc3n2Cc2cc(-c3ccc(Cl)s3)on2)CC1` [Example 65, 3-[5-(5-Chloro-thiophen-2-yl)-isoxazol-3-ylmethyl]-2-(1-isopropyl-piperidin-4-ylcarbamoyl)-3H-benzoimidazole-5-carboxylic acid 2-hydroxy-ethyl ester], the Ki turned out to be 121 nM.
Under `CCOCCOc1cccc2c1nc(C(=O)NC1CCN(C(C)C)CC1)n2CC(=O)Nc1ccc(Cl)cn1` [Example 109, 1-[(5-Chloro-pyridin-2-ylcarbamoyl)-methyl]-4-(2-ethoxy-ethoxy)-1H-benzoimidazole-2-carboxylic acid (1-isopropyl-piperidin-4-yl)-amide] stands 3.5 nM.
In the case of `O=C1CCN(c2ccc(NC(=O)c3nc4ccccc4n3Cc3cc(-c4ccc(Cl)s4)on3)cc2)CC1` [Example 45, 1-[5-(5-Chloro-thiophen-2-yl)-isoxazol-3-ylmethyl]-1H-benzoimidazole-2-carboxylic acid [4-(4-oxo-piperidin-1-yl)-phenyl]-amide], the inhibition constant (Ki) came out at 210 nM.
On to `COC(=O)c1ccc2c(c1)nc(C(=O)NC1CCN(C(C)C)CC1)n2Cc1cc(-c2ccc(Cl)s2)on1` [Example 5a, 1-[5-(5-Chloro-thiophen-2-yl)-isoxazol-3-ylmethyl]-2-(1-isopropyl-piperidin-4-ylcarbamoyl)-1H-benzoimidazole-5-carboxylic acid methyl ester], for which the inhibition constant Ki worked out at 2.5 nM.
